The test system of experiment [1] is Bacillus subtilis. The experiment can be described thus: Antibacterial activity against Bacillus subtilis CMCC-B 63501 by twofold serial dilution method. The experiment is classed as functional.
Experiment [2] concerns Bacillus subtilis. The experiment can be described thus: Antibacterial activity against Bacillus subtilis CMCC-B 63501 up to 500 ug/ml by twofold serial dilution method. The experiment is classed as functional, organism-based.
The mark [3] stands for this setting: Bacillus subtilis, read-out: MIC.

SMILES strings stand for the structures. Values after ≈ are worked out from the molar mass of the structure shown. Active and inactive are the calls of the source. The calls are words filed in the database; no cut-off is given here.

This note sets out measurements from ChEMBL document CHEMBL1153375, “Synthesis and antibacterial activities of N-glycosylated derivatives of tyrocidine A, a macrocyclic peptide antibiotic” (2009).

With `CC(C)C[C@@H]1NC(=O)[C@H](CCCN)NC(=O)[C@H](C(C)C)NC(=O)[C@H](Cc2ccc(O)cc2)NC(=O)[C@H](CCC(N)=O)NC(=O)[C@H](CC(=O)NCCO[C@@H]2O[C@H](CO)[C@@H](O[C@@H]3O[C@H](CO)C(O)[C@H](O)[C@H]3O)[C@H](O)[C@H]2O)NC(=O)C(Cc2ccccc2)NC(=O)[C@H](Cc2ccccc2)NC(=O)[C@@H]2CCCN2C(=O)C(Cc2ccccc2)NC1=O` (single isomer, unassigned), the MIC with Bacillus subtilis [1] (setting [3]) turned out to be 62 µg/mL (≈ 37.8 µM).
For the compound `CC(=O)N[C@@H]1[C@@H](O)[C@H](O)[C@@H](CO)O[C@H]1NC(=O)C[C@@H]1NC(=O)C(Cc2ccccc2)NC(=O)[C@H](Cc2ccccc2)NC(=O)[C@@H]2CCCN2C(=O)C(Cc2ccccc2)NC(=O)[C@H](CC(C)C)NC(=O)[C@H](CCCN)NC(=O)[C@H](C(C)C)NC(=O)[C@H](Cc2ccc(O)cc2)NC(=O)[C@H](CCC(N)=O)NC1=O` (single isomer, unassigned), in the experiment on Bacillus subtilis [2], the outcome was inactive.
On the same count and under the same terms, as for `CC(=O)N[C@@H]1[C@@H](O)[C@H](O[C@@H]2O[C@H](CO)[C@@H](O)[C@H](O)[C@H]2NC(C)=O)[C@@H](CO)O[C@H]1NC(=O)C[C@@H]1NC(=O)C(Cc2ccccc2)NC(=O)[C@H](Cc2ccccc2)NC(=O)[C@@H]2CCCN2C(=O)C(Cc2ccccc2)NC(=O)[C@H](CC(C)C)NC(=O)[C@H](CCCN)NC(=O)[C@H](C(C)C)NC(=O)[C@H](Cc2ccc(O)cc2)NC(=O)[C@H](CCC(N)=O)NC1=O` (single isomer, unassigned), the entry is “inactive”.
With `CC(C)C[C@@H]1NC(=O)[C@H](CCCN)NC(=O)[C@H](C(C)C)NC(=O)[C@H](Cc2ccc(O)cc2)NC(=O)[C@H](CCC(N)=O)NC(=O)[C@H](CC(N)=O)NC(=O)[C@@H](Cc2ccccc2)NC(=O)[C@H](Cc2ccccc2)NC(=O)[C@@H]2CCCN2C(=O)[C@@H](Cc2ccccc2)NC1=O` (stereo in doubt) [TYROCIDINE A], the MIC against Bacillus subtilis [1] was 20 µg/mL (≈ 15.7 µM).
Consider `CC(C)C[C@@H]1NC(=O)[C@H](CCCN)NC(=O)[C@H](C(C)C)NC(=O)[C@H](Cc2ccc(O)cc2)NC(=O)[C@H](CCC(N)=O)NC(=O)[C@H](CC(N)=O)NC(=O)[C@@H](Cc2ccccc2)NC(=O)[C@H](Cc2ccccc2)NC(=O)[C@@H]2CCCN2C(=O)[C@@H](Cc2ccccc2)NC1=O` (stereo in doubt; 1) [TYROCIDINE A], for which the MIC with Bacillus subtilis [1] (setting [3]) turned out to be 31 µg/mL (≈ 24.4 µM).

By MIC is commonly meant the lowest concentration that inhibits growth of the organism.
